Results on two compounds are retold here after BindingDB's records for PubMed 29656203 (n/a, 2018).

The experiment in a line: Inhibition of angiotensin II (unknown origin).

As usually defined, the IC50 is the concentration that gives 50% inhibition. Read a high IC50 as weaker potency in that assay. `CCCCc1nc2ccc(C3CC(c4ccc(C)cc4)=NO3)cc2c(=O)n1Cc1ccc(-c2ccccc2-c2nnnn2C(c2ccccc2)(c2ccccc2)c2ccccc2)cc1` (configuration not stated): 22 nM corresponded to half-maximal inhibition (IC50).

As for `CCCCc1nc2ccc(C3CC(C(=O)OCC)=NO3)cc2c(=O)n1Cc1ccc(-c2ccccc2-c2nnnn2C(c2ccccc2)(c2ccccc2)c2ccccc2)cc1` (configuration not stated), the IC50 was found to be 22 nM.
